pIC50: −log10 of the molar value.
Tests used:
Rattus norvegicus [1] = assay: Total plasma concentration in Sprague-Dawley rat at 3 mg/kg, po; format: ADME, organism-based; set-up: dose 3 mg/kg, route oral; settings: in vivo
[2] = Fraction unbound in Sprague-Dawley rat plasma at 10 mg/kg, po after 3 hrs by equilibrium dialysis; format: ADME, organism-based; set-up: dose 10 mg/kg, route oral
[3] = Clearance in Sprague-Dawley rat 2 mg/kg, iv within 0.17 to 24 hrs; format: ADME, organism-based; set-up: dose 2 mg/kg, route intravenous; settings: in vivo
[4] = AUC in Sprague-Dawley rat at 10 mg/kg, po dosed as aqueous solution of oleoyl macrogolglyceride/DMAC/polysorbate 80, 85:10:5 within 0.25 to 24 hrs; format: ADME, organism-based; set-up: time 0.25-24 hr, dose 10 mg/kg, route oral; settings: plasma
Rattus norvegicus [5] = assay: Anxiolytic activity in Sprague-Dawley rat at 10 mg/kg, po assessed as decrease in exit latency after 60 mins by defensive withdrawal test relative to control; format: functional; set-up: scale not given: the % may be the effect or the level left
Rattus norvegicus [6] = assay: Oral bioavailability in Sprague-Dawley rat at 10 mg/kg dosed as aqueous solution of oleoyl macrogolglyceride/DMAC/polysorbate 80, 85:10:5 within 0.25 to 24 hrs; format: ADME, organism-based; settings: in vivo
Rattus norvegicus [7] = assay: Anxiolytic activity in Sprague-Dawley rat at 3 mg/kg, po assessed as decrease in exit latency after 60 mins by defensive withdrawal test relative to control; format: functional; set-up: scale not given: the % may be the effect or the level left
[8] = molecular target: T1, Corticotropin-releasing factor receptor 1 (Rattus norvegicus, UniProt P35353); assay: Displacement of [125I]ovine-CRF from CRF1 receptor in rat frontal cortex by rapid filtration technique; format: tissue-based
T1 sequence (P35353 whole entry): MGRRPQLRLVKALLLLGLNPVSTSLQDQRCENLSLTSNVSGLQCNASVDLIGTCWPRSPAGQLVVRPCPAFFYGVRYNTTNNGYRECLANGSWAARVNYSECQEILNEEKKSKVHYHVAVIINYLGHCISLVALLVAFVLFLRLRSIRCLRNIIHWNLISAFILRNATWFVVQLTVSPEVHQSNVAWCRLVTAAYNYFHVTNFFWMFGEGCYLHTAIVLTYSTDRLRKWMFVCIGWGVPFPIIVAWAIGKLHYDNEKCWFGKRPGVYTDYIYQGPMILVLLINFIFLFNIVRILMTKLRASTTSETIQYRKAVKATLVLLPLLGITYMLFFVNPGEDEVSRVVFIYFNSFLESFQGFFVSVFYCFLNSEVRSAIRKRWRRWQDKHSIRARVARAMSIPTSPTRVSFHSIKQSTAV

Rattus norvegicus [9] = assay: Ex vivo receptor occupancy of CRF1 receptor in Sprague-Dawley rat brain at 1 mg/kg, po after 20 mins by autoradiography relative to [125I-tyrosine]sauvagine; format: functional
Rattus norvegicus [10] = assay: Plasma free concentration in Sprague-Dawley rat at 10 mg/kg, po; format: ADME, organism-based; set-up: dose 10 mg/kg, route oral; settings: in vivo
Rattus norvegicus [11] = assay: Ex vivo receptor occupancy of CRF1 receptor in po dosed Sprague-Dawley rat brain after 20 mins by autoradiography; format: functional, organism-based
[12] = Aqueous solubility at pH 6.5; format: physicochemical
Rattus norvegicus [13] = assay: Ex vivo receptor occupancy of CRF1 receptor in Sprague-Dawley rat brain at 10 mg/kg, po after 20 mins by autoradiography relative to [125I-tyrosine]sauvagine; format: functional
[14] = molecular target: T2, Corticotropin-releasing factor receptor 1 (Homo sapiens, UniProt P34998); assay: Antagonist activity at CRF1 receptor in human Y-79 cells assessed as inhibition of CRF-induced cAMP production after 30 mins by HTRF analysis
T2 sequence (P34998 whole entry): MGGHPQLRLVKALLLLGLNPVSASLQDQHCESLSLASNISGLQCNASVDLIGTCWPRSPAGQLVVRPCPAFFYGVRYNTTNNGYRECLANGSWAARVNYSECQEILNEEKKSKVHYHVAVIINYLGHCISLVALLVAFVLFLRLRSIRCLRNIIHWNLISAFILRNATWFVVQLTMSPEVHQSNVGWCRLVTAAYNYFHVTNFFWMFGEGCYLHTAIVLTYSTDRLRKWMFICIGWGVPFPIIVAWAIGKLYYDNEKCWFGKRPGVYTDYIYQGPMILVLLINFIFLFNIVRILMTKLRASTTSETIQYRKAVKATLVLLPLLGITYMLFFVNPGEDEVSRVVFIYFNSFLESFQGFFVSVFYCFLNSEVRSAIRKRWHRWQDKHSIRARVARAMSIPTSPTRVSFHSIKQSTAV

[15] = Half life in Sprague-Dawley rat 2 mg/kg, iv within 0.17 to 24 hrs; format: ADME, organism-based; set-up: dose 2 mg/kg, route intravenous; settings: in vivo
Rattus norvegicus [16] = assay: Plasma free concentration in Sprague-Dawley rat at 3 mg/kg, po; format: ADME, organism-based; set-up: dose 3 mg/kg, route oral; settings: in vivo
[17] = Cmax in Sprague-Dawley rat at 10 mg/kg, po dosed as aqueous suspension of 1% polysorbate 80 in 0.5% methylcellulose within 0.25 to 24 hrs; format: ADME, organism-based; set-up: dose 10 mg/kg, route oral; settings: in vivo
Rattus norvegicus [18] = assay: Anxiolytic activity in Sprague-Dawley rat at 1 mg/kg, po assessed as decrease in exit latency after 60 mins by defensive withdrawal test relative to control; format: functional; set-up: scale not given: the % may be the effect or the level left
Rattus norvegicus [19] = assay: Total plasma concentration in Sprague-Dawley rat at 10 mg/kg, po; format: ADME, organism-based; set-up: dose 10 mg/kg, route oral; settings: in vivo
[20] = molecular target: Corticotropin releasing hormone receptor 2 (Sus scrofa, UniProt B8Q4Z9); assay: Displacement of [125I]sauvagine from CRF2 receptor in pig choroid plexus by rapid filtration technique; format: tissue-based
[21] = Volume of distribution at steady state in Sprague-Dawley rat 2 mg/kg, iv within 0.17 to 24 hrs; format: ADME, organism-based; set-up: dose 2 mg/kg, route intravenous; settings: in vivo, read-out: Vdss
[22] = AUC in Sprague-Dawley rat at 10 mg/kg, po dosed as aqueous suspension of 1% polysorbate 80 in 0.5% methylcellulose within 0.25 to 24 hrs; format: ADME, organism-based; set-up: time 0.25-24 hr, dose 10 mg/kg, route oral; settings: in vivo
Rattus norvegicus [23] = assay: Total plasma concentration in Sprague-Dawley rat at 1 mg/kg, po; format: ADME, organism-based; set-up: dose 1 mg/kg, route oral; settings: in vivo
[24] = Intrinsic clearance in human liver microsomes at 1 uM; format: ADME, Microsome
Rattus norvegicus [25] = assay: Plasma free concentration in Sprague-Dawley rat at 1 mg/kg, po; format: ADME, organism-based; set-up: dose 1 mg/kg, route oral; settings: in vivo
[26] = Oral bioavailability in Sprague-Dawley rat at 10 mg/kg dosed as aqueous suspension of 1% polysorbate 80 in 0.5% methylcellulose within 0.25 to 24 hrs; format: ADME, organism-based; settings: in vivo
Rattus norvegicus [27] = assay: Ex vivo receptor occupancy of CRF1 receptor in Sprague-Dawley rat brain at 3 mg/kg, po after 20 mins by autoradiography relative to [125I-tyrosine]sauvagine; format: functional
Rattus norvegicus [28] = assay: Cmax in Sprague-Dawley rat at 10 mg/kg, po dosed as aqueous solution of oleoyl macrogolglyceride/DMAC/polysorbate 80, 85:10:5 within 0.25 to 24 hrs; format: ADME, organism-based; set-up: dose 10 mg/kg, route oral; settings: in vivo
[29] = Aqueous solubility at pH 1; format: physicochemical

Chain of Corticotropin releasing hormone receptor 2 (B8Q4Z9 whole entry): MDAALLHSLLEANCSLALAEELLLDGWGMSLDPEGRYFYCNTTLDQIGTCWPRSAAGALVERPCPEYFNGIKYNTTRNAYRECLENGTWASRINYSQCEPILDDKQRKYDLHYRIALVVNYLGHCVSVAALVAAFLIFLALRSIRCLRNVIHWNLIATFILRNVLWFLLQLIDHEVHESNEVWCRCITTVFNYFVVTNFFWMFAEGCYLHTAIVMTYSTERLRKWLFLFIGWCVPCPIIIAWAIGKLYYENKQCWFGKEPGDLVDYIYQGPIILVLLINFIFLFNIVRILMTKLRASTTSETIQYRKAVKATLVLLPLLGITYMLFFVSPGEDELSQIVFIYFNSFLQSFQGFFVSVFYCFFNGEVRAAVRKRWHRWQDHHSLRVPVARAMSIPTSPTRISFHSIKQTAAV

C[C@@H](C1CC1)n1cc(Cl)nc(Nc2c(Cl)cc(OC(F)F)cc2Cl)c1=O
concentration (Rattus norvegicus [1]): 270 nM
fraction unbound at 3 h [2]: 0.0077
clearance [3]: 17 mL/min/kg
AUC [4]: 12 µM·h
Activity (Rattus norvegicus [5]): 61%
F (Rattus norvegicus [6]): 52%
Activity (Rattus norvegicus [7]): 46%
pIC50 [8]: 9.00
Activity (Rattus norvegicus [9]): 43%
Cp(f) (Rattus norvegicus [10]): 6.1 nM
Activity (Rattus norvegicus [11]): Dose-dependent effect
solubility [12]: < 1 µg/mL
Activity (Rattus norvegicus [13]): 83%
pIC50 [14]: 8.31
half-life [15]: 7.8 h
Cp(f) (Rattus norvegicus [16]): 2.1 nM
Cmax [17]: 100 nM
Activity (Rattus norvegicus [18]): 8%
concentration (Rattus norvegicus [19]): 790 nM
pIC50 [20]: < 5.00
Vd [21]: 4.7 L/kg
AUC [22]: 1.3 µM·h
concentration (Rattus norvegicus [23]): 80 nM
CLint scaled at 1 µM [24]: 62 mL/min/kg
Cp(f) (Rattus norvegicus [25]): 0.62 nM
bioavailability [26]: 5%
Activity (Rattus norvegicus [27]): 73%
Cmax (Rattus norvegicus [28]): 1700 nM
solubility [29]: < 1 µg/mL
